Laboratory results as given in patent USRE38257E1, “Piperdine derivatives and hypotensives containing the same” (Ajinomoto Co., Inc., priority 1988, dated 2003).

System: male spontaneously hypertensive rats
Assay: Decrease in systolic blood pressure in spontaneously hypertensive rats after intravenous bolus injection, indirect (tail-cuff) method
Format: in vivo, rat
Settings: for Decrease in systolic blood pressure (mmHg) time after administration (hour) 0.5: 0.5 hour after administration; for Decrease in systolic blood pressure (mmHg) time after administration (hour) 4: 4 hours after administration
Description: As test animals, four male spontaneously hypertensive rats (weight 400 to 440 g) that were sufficiently adapted for feeding and in which hypertension was confirmed were used.
Physiological saline aqueous solution containing 2.5% Nicolle and 2.5% ethanol of sample was intravenously administered by bolus injection at a dose of 1 ml per 1 kg of body weight. Systolic blood pressure after administration was measured by the indirect (tail-cuff) method.

Compound | Decrease in systolic blood pressure (mmHg) time after administration (hour) 0.5 (dose 10 mg/kg i.v. bolus) [mmHg] | Decrease in systolic blood pressure (mmHg) time after administration (hour) 4 (dose 10 mg/kg i.v. bolus) [mmHg] | Decrease in systolic blood pressure (mmHg) time after administration (hour) 0.5 (dose 1 mg/kg i.v. bolus) [mmHg] | Decrease in systolic blood pressure (mmHg) time after administration (hour) 4 (dose 1 mg/kg i.v. bolus) [mmHg]
Cl.Clc1cccc(CN2CCC(=C3c4ccccc4C=Cc4ccccc43)CC2)c1 [Example 129, 1-(3-Chlorobenzyl)-4-(5H-Dibenzo[a,d]cyclohepten-5-ylidene)piperidine hydrochloride] | −17 | −1 |  | 
CC(C)C(C#N)(CCCN1CCC(=C2c3ccccc3C=Cc3ccccc32)CC1)c1ccc(Cl)c(Cl)c1.Cl (centres unmarked) [Example 42, 5-(4-(5H-Dibenzo[a,d]cyclohepten-5-ylidene)-1-piperidinyl)-2-(3,4-dichlorophenyl)-2-isopropylvaleronitrile hydrochloride] | −66 | −14 |  | 
COc1ccc(CN2CCC(=C3c4ccccc4C=Cc4ccccc43)CC2)cc1OC [Example 175, 4-(5H-Dibenzo[a,d]cyclohepten-5-ylidene)-1-(3,4-dimethoxybenzyl)piperidine] | −87 | −1 |  | 
Cl.O=[N+]([O-])c1cccc(CN2CCC(=C3c4ccccc4C=Cc4ccccc43)CC2)c1 [Example 142, 4-(5H-Dibenzo[a,d]cyclohepten-5-ylidene)-1-(3-nitrobenzyl)piperidine hydrochloride] | −43 | 0 |  | 
COc1cc(C(C#N)(CCCN2CCC(=C3c4ccccc4C=Cc4ccccc43)CC2)C(C)C)cc(OC)c1OC.Cl (centres unmarked) [Example 126, 5-(4-(5H-Dibenzo[a,d]cyclohepten-5-ylidene)-1-piperidinyl)-2-isopropyl-2-(3,4,5-trimethoxyphenyl)valeronitrile hydrochloride] | −87 | −19 |  | 
CCCCCCCN1CCC(=C2c3ccccc3C=Cc3ccccc32)CC1.Cl [Example 134, 4-(5H-Dibenzo[a,d]cyclohepten-5-ylidene)-1-heptylpiperidine hydrochloride] | −115 | −30 |  | 
CCOC(=O)CCCN1CCC(=C2c3ccccc3C=Cc3ccccc32)CC1.Cl [Example 199, Ethyl 4-(4-(5H-dibanzo[a,d]cyclohepten-5-ylidene)-1-piperidinyl)butyrate hydrochloride] | −15 | −24 |  | 
C1=Cc2ccccc2C(=C2CCN(CCC3Cc4ccccc4C3)CC2)c2ccccc21.Cl [Example 310, 2-(2-(4-(5H-Dibenzo[a,d]cyclohepten-5-ylidene)-1-piperidinyl)-1-ethyl)indane hydrochloride] | −90 | −18 |  | 
Cl.Fc1ccc(CN2CCC(=C3c4ccccc4C=Cc4ccccc43)CC2)cc1 [Example 113, 4-(5H-Dibenzo[a,d]cyclohepten-5-ylidene)-1-(4-fluorobenzyl)piperidine hydrochloride] |  |  | −151 | −81
COc1cc2c(cc1OC)CC(CN1CCC(=C3c4ccccc4C=Cc4ccccc43)CC1)C2.Cl [Example 287, 2-(4-(5H-Dibenzo[a,d]cyclohepten-5-ylidene)-1-piperidinyl)methyl-5′,6′-dimethoxyindan hydrochloride] | −83 | −16 |  | 
